ChEMBL document CHEMBL1201861, “Genomics of Drug Sensitity in Cancer screening data, Wellcome Trust Sanger Institute”
pIC50: −log10 of the molar value.

Assays:
Assay in all cases: cells
DMS-114 = format: functional, cell-based, Homo sapiens; conditions: Homo sapiens, DMS-114
P30-OHK = format: functional, cell-based; conditions: Homo sapiens;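 note: growth inhibition of the P30-OHK cell line, read out with a cell viability assay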
Description: SANGER: Inhibition of human P30-OHK cell growth in a cell viability assay.

MMAC-SF = format: functional, cell-based, Homo sapiens; conditions: Homo sapiens, MMAC-SF;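 note: growth inhibition of human MMAC-SF cells, read out with a cell viability assay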
Description: SANGER: Inhibition of human MMAC-SF cell growth in a cell viability assay.

NCI-H1581 = format: functional, cell-based, Homo sapiens; conditions: Homo sapiens, NCI-H1581;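 note: cell growth inhibition read out by a viability assay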
Description: SANGER: Inhibition of human NCI-H1581 cell growth in a cell viability assay.

BT-474 = format: functional, cell-based, Homo sapiens; conditions: Homo sapiens, BT-474
Description: SANGER: Inhibition of human BT-474 cell growth in a cell viability assay.

AM-38 = format: functional, cell-based, Homo sapiens; conditions: Homo sapiens, AM-38;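 note: growth inhibition of AM-38 cells of human origin, read out by a cell viability assay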
LB831-BLC = format: functional, cell-based, Homo sapiens; conditions: Homo sapiens, LB831-BLC;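 note: growth inhibition of LB831-BLC cells, read out with a cell viability assay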
Description: SANGER: Inhibition of human LB831-BLC cell growth in a cell viability assay.

NCI-H209 = format: functional, cell-based; conditions: Homo sapiens;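 note: growth inhibition of human NCI-H209 cells, measured by a cell viability assay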
Description: SANGER: Inhibition of human NCI-H209 cell growth in a cell viability assay.

C2BBe1 = format: functional, cell-based, Homo sapiens; conditions: Homo sapiens, C2BBe1;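 note: growth inhibition of C2BBe1 cells, read out through a viability assay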
Description: SANGER: Inhibition of human C2BBe1 cell growth in a cell viability assay.

NB13 = format: functional, cell-based, Homo sapiens; conditions: Homo sapiens, NB13;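 note: cell viability readout measuring growth inhibition of human NB13 cells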
Description: SANGER: Inhibition of human NB13 cell growth in a cell viability assay.

SNU1 = format: functional, cell-based; conditions: Homo sapiens;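 note: growth inhibition of human NCI-SNU-1 cells, measured with a cell viability assay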
Description: SANGER: Inhibition of human NCI-SNU-1 cell growth in a cell viability assay.

ES3 = format: functional, cell-based, Homo sapiens; conditions: Homo sapiens, ES3;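 note: growth inhibition of ES3 cells, read out with a cell viability assay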
U-87 MG = format: functional, cell-based, U-87MG ATCC; conditions: Homo sapiens;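 note: growth inhibition of the cells measured with a viability assay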
Description: SANGER: Inhibition of human U-87-MG cell growth in a cell viability assay.

NCI-H1155 = format: functional, cell-based; conditions: Homo sapiens;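 note: cell growth inhibition measured by a viability assay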
Description: SANGER: Inhibition of human NCI-H1155 cell growth in a cell viability assay.

8-MG-BA = format: functional, cell-based, Homo sapiens; conditions: Homo sapiens, 8-MG-BA;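 note: growth inhibition of 8-MG-BA cells, read out with a cell viability assay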
Description: SANGER: Inhibition of human 8-MG-BA cell growth in a cell viability assay.

BE-13 = format: functional, cell-based; conditions: Homo sapiens;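 note: growth inhibition of human BE-13 cells, measured with a cell viability assay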
Description: SANGER: Inhibition of human BE-13 cell growth in a cell viability assay.

HH = format: functional, cell-based; conditions: Homo sapiens
Description: SANGER: Inhibition of human HH cell growth in a cell viability assay.

Mo = format: functional, cell-based; conditions: Homo sapiens
Description: SANGER: Inhibition of human Mo-T cell growth in a cell viability assay.

HuTu80 = format: functional, cell-based, Homo sapiens, HUTU-80; conditions: Homo sapiens, HuTu80;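 note: growth inhibition of HuTu80 human cells, determined with a cell viability readout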
Description: SANGER: Inhibition of human HUTU-80 cell growth in a cell viability assay.

EW-3 = format: functional, cell-based; conditions: Homo sapiens;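 note: cell viability assay read-out, IC50 reflects inhibition of growth of the EW-3 cells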
Description: SANGER: Inhibition of human EW-3 cell growth in a cell viability assay.

D-502MG = format: functional, cell-based, Homo sapiens; conditions: Homo sapiens, D-502MG
Description: SANGER: Inhibition of human D-502MG cell growth in a cell viability assay.

697 = format: functional, cell-based; conditions: Homo sapiens
Description: SANGER: Inhibition of human 697 cell growth in a cell viability assay.

NB10 = format: functional, cell-based, Homo sapiens; conditions: Homo sapiens, NB10;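 note: growth inhibition of NB10 cells, read out by a cell viability assay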
Description: SANGER: Inhibition of human NB10 cell growth in a cell viability assay.

NCI-H1092 = format: functional, cell-based; conditions: Homo sapiens;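 note: cell growth inhibition measured with a cell viability assay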
Description: SANGER: Inhibition of human NCI-H1092 cell growth in a cell viability assay.

MLMA = format: functional, cell-based, Homo sapiens; conditions: Homo sapiens, MLMA;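 note: growth inhibition of MLMA cells (human), determined through a cell viability readout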
Description: SANGER: Inhibition of human MLMA cell growth in a cell viability assay.

KY821 = format: functional, cell-based; conditions: Homo sapiens;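 note: growth inhibition of human KY821 cells, read out by a cell viability assay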
Ramos-2G6-4C10 = format: functional, cell-based; conditions: Homo sapiens;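 note: growth inhibition of the cell line, measured by a cell viability read-out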
Description: SANGER: Inhibition of human Ramos-2G6-4C10 cell growth in a cell viability assay.

MV4-11 = format: functional, cell-based, MV-4-11; conditions: Homo sapiens;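 note: cell viability readout measuring growth inhibition of human MV-4-11 cells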
Description: SANGER: Inhibition of human MV-4-11 cell growth in a cell viability assay.

DMS-79 = format: functional, cell-based; conditions: Homo sapiens;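 note: growth inhibition measured with a cell viability assay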
Description: SANGER: Inhibition of human DMS-79 cell growth in a cell viability assay.

LS-1034 = format: functional, cell-based, Homo sapiens; conditions: Homo sapiens, LS-1034
Description: SANGER: Inhibition of human LS-1034 cell growth in a cell viability assay.

EM-2 = format: functional, cell-based; conditions: Homo sapiens;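 note: growth inhibition of EM-2 cells, read out with a cell viability assay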
Description: SANGER: Inhibition of human EM-2 cell growth in a cell viability assay.

COLO-684 = format: functional, cell-based; conditions: Homo sapiens
Description: SANGER: Inhibition of human COLO-684 cell growth in a cell viability assay.

NEC8 = format: functional, cell-based, Homo sapiens; conditions: Homo sapiens, NEC8;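 note: growth inhibition of human NEC8 cells, read out by a cell viability assay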
Description: SANGER: Inhibition of human NEC8 cell growth in a cell viability assay.

CW-2 = format: functional, cell-based, Homo sapiens; conditions: Homo sapiens, CW-2;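 note: growth inhibition of CW-2 cells, read out by a cell viability assay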
Description: SANGER: Inhibition of human CW-2 cell growth in a cell viability assay.

| SMILES | pIC50 (DMS-114) | pIC50 (P30-OHK) | pIC50 (MMAC-SF) | pIC50 (NCI-H1581) | pIC50 (BT-474) | pIC50 (AM-38) | pIC50 (LB831-BLC) | pIC50 (NCI-H209) | pIC50 (C2BBe1) | pIC50 (NB13) | pIC50 (SNU1) | pIC50 (ES3) | pIC50 (U-87 MG) | pIC50 (NCI-H1155) | pIC50 (8-MG-BA) | pIC50 (BE-13) | pIC50 (HH) | pIC50 (Mo) | pIC50 (HuTu80) | pIC50 (EW-3) | further results |
| --- | --- | --- | --- | --- | --- | --- | --- | --- | --- | --- | --- | --- | --- | --- | --- | --- | --- | --- | --- | --- | --- |
| C=C1C(=O)O[C@@H]2C3O[C@]3(C)CC/C=C(\C)CC[C@@H]12 (some centres not stated) | < 5.30 | < 5.30 | < 5.30 | < 5.30 | < 5.30 | < 5.30 | < 5.30 | < 5.30 | < 5.30 | < 5.30 | < 5.30 | < 5.30 | < 5.30 | < 5.30 | < 5.30 | < 5.30 | < 5.30 | < 5.30 | < 5.30 | < 5.30 | pIC50 (D-502MG): < 5.30; pIC50 697: 6.33; pIC50 (NB10): < 5.30; pIC50 (NCI-H1092): < 5.30; pIC50 (MLMA): < 5.30; pIC50 (KY821): < 5.30; pIC50 (Ramos-2G6-4C10): < 5.30; pIC50 (MV4-11): < 5.30; pIC50 (DMS-79): < 5.30; pIC50 (LS-1034): < 5.30; pIC50 (EM-2): < 5.30; pIC50 (COLO-684): < 5.30; pIC50 (NEC8): < 5.30; pIC50 (CW-2): < 5.30 |
| CC1=C2C[C@H]3[C@@H](CC=C4C[C@@H](O)CC[C@@]43C)[C@@H]2CC[C@]12O[C@@H]1C[C@H](C)CN[C@H]1[C@H]2C [CYCLOPAMINE] | < 4.80 | < 4.80 | < 4.80 | < 4.80 | < 4.80 | < 4.80 | < 4.80 | < 4.80 | < 4.80 | < 4.80 | < 4.80 | < 4.80 | < 4.80 | < 4.80 | 4.88 | < 4.80 | < 4.80 | < 4.80 | < 4.80 | < 4.80 | pIC50 (D-502MG): < 4.80; pIC50 697: < 4.80; pIC50 (NB10): < 4.80; pIC50 (NCI-H1092): < 4.80; pIC50 (MLMA): < 4.80; pIC50 (KY821): < 4.80; pIC50 (Ramos-2G6-4C10): < 4.80; pIC50 (MV4-11): < 4.80; pIC50 (DMS-79): < 4.80; pIC50 (LS-1034): < 4.80; pIC50 (EM-2): < 4.80; pIC50 (COLO-684): < 4.80; pIC50 (NEC8): < 4.80; pIC50 (CW-2): < 4.80 |
| CS(=O)(=O)CCNCc1ccc(-c2ccc3ncnc(Nc4ccc(OCc5cccc(F)c5)c(Cl)c4)c3c2)o1 [LAPATINIB] | < 5.70 | < 5.70 | < 5.70 | < 5.70 | 6.67 | < 5.70 | < 5.70 | < 5.70 | < 5.70 | < 5.70 | < 5.70 | < 5.70 | < 5.70 | < 5.70 | < 5.70 | < 5.70 | < 5.70 | < 5.70 | < 5.70 | < 5.70 | pIC50 (D-502MG): < 5.70; pIC50 697: < 5.70; pIC50 (NB10): < 5.70; pIC50 (NCI-H1092): < 5.70; pIC50 (MLMA): < 5.70; pIC50 (KY821): < 5.70; pIC50 (Ramos-2G6-4C10): < 5.70; pIC50 (MV4-11): < 5.70; pIC50 (DMS-79): < 5.70; pIC50 (LS-1034): < 5.70; pIC50 (EM-2): < 5.70; pIC50 (COLO-684): < 5.70; pIC50 (NEC8): < 5.70; pIC50 (CW-2): < 5.70 |
| CCc1nc(N)nc(N)c1-c1ccc(Cl)cc1 [PYRIMETHAMINE] | < 4.70 | < 4.70 | < 4.70 | < 4.70 | < 4.70 | < 4.70 | < 4.70 | 5.22 | < 4.70 | < 4.70 | 4.83 | < 4.70 | < 4.70 | < 4.70 | < 4.70 | 5.11 | < 4.70 | < 4.70 | 4.92 | < 4.70 | pIC50 (D-502MG): < 4.70; pIC50 697: 5.44; pIC50 (NB10): < 4.70; pIC50 (NCI-H1092): < 4.70; pIC50 (MLMA): < 4.70; pIC50 (KY821): < 4.70; pIC50 (Ramos-2G6-4C10): 5.25; pIC50 (MV4-11): 4.94; pIC50 (DMS-79): < 4.70; pIC50 (LS-1034): 4.74; pIC50 (EM-2): 4.91; pIC50 (COLO-684): 5.17; pIC50 (NEC8): 5.82; pIC50 (CW-2): < 4.70 |
| O=C(/C=C/c1ccccc1)NC(NC(=S)Nc1cccc2cccnc12)C(Cl)(Cl)Cl (configuration not stated) [SALUBRINAL] | < 4.80 | < 4.80 | < 4.80 | < 4.80 | < 4.80 | < 4.80 | < 4.80 | < 4.80 | < 4.80 | < 4.80 | < 4.80 | < 4.80 | < 4.80 | < 4.80 | 4.96 | 5.08 | < 4.80 | < 4.80 | 4.93 | < 4.80 | pIC50 (D-502MG): < 4.80; pIC50 697: 5.40; pIC50 (NB10): < 4.80; pIC50 (NCI-H1092): < 4.80; pIC50 (MLMA): < 4.80; pIC50 (KY821): < 4.80; pIC50 (Ramos-2G6-4C10): 5.00; pIC50 (MV4-11): < 4.80; pIC50 (DMS-79): < 4.80; pIC50 (LS-1034): < 4.80; pIC50 (EM-2): < 4.80; pIC50 (COLO-684): < 4.80; pIC50 (NEC8): 5.22; pIC50 (CW-2): < 4.80 |
| CN1CCN(CCOc2cc(OC3CCOCC3)c3c(Nc4c(Cl)ccc5c4OCO5)ncnc3c2)CC1 [SARACATINIB] | < 5.70 | < 5.70 | < 5.70 | < 5.70 | < 5.70 | < 5.70 | < 5.70 | < 5.70 | 5.92 | < 5.70 | < 5.70 | < 5.70 | < 5.70 | < 5.70 | < 5.70 | < 5.70 | < 5.70 | < 5.70 | < 5.70 | < 5.70 | pIC50 (D-502MG): < 5.70; pIC50 697: < 5.70; pIC50 (NB10): < 5.70; pIC50 (NCI-H1092): < 5.70; pIC50 (MLMA): < 5.70; pIC50 (KY821): < 5.70; pIC50 (Ramos-2G6-4C10): < 5.70; pIC50 (MV4-11): < 5.70; pIC50 (DMS-79): < 5.70; pIC50 (LS-1034): < 5.70; pIC50 (EM-2): 6.58; pIC50 (COLO-684): < 5.70; pIC50 (NEC8): < 5.70; pIC50 (CW-2): < 5.70 |
| CO[C@H]1C[C@@H]2CC[C@@H](C)[C@@](O)(O2)C(=O)C(=O)N2CCCC[C@H]2C(=O)O[C@H]([C@H](C)C[C@@H]2CC[C@@H](O)[C@H](OC)C2)CC(=O)[C@H](C)/C=C(\C)[C@@H](O)[C@@H](OC)C(=O)[C@H](C)C[C@H](C)/C=C/C=C/C=C/1C [SIROLIMUS] | < 7.00 | < 7.00 | < 7.00 | < 7.00 | < 7.00 | < 7.00 | < 7.00 | 7.06 | < 7.00 | 8.36 | < 7.00 | < 7.00 | < 7.00 | < 7.00 | < 7.00 | 8.52 | 7.94 | < 7.00 | 8.35 | < 7.00 | pIC50 (D-502MG): < 7.00; pIC50 697: 8.20; pIC50 (NB10): < 7.00; pIC50 (NCI-H1092): < 7.00; pIC50 (MLMA): < 7.00; pIC50 (KY821): < 7.00; pIC50 (Ramos-2G6-4C10): 8.84; pIC50 (MV4-11): 7.08; pIC50 (DMS-79): < 7.00; pIC50 (LS-1034): < 7.00; pIC50 (EM-2): 7.41; pIC50 (COLO-684): 7.40; pIC50 (NEC8): < 7.00; pIC50 (CW-2): < 7.00 |
| CNC(=O)c1cc(Oc2ccc(NC(=O)Nc3ccc(Cl)c(C(F)(F)F)c3)cc2)ccn1 [SORAFENIB] | < 5.40 | < 5.40 | < 5.40 | < 5.40 | < 5.40 | < 5.40 | < 5.40 | < 5.40 | < 5.40 | < 5.40 | 5.64 | < 5.40 | < 5.40 | < 5.40 | < 5.40 | 5.57 | < 5.40 | < 5.40 | < 5.40 | < 5.40 | pIC50 (D-502MG): < 5.40; pIC50 697: < 5.40; pIC50 (NB10): < 5.40; pIC50 (NCI-H1092): < 5.40; pIC50 (MLMA): < 5.40; pIC50 (KY821): < 5.40; pIC50 (Ramos-2G6-4C10): < 5.40; pIC50 (MV4-11): > 7.81; pIC50 (DMS-79): < 5.40; pIC50 (LS-1034): < 5.40; pIC50 (EM-2): 5.87; pIC50 (COLO-684): < 5.40; pIC50 (NEC8): < 5.40; pIC50 (CW-2): < 5.40 |
